Assay results published in PubChem BioAssay AID1919000 (Molecular Pharmacology Branch, DTP, NCI, 2023).

Test system: 653999-131-R-J2-PDC complex spheroids, growth % test/control
Test: Anticancer human tumor 653999-131-R-J2-PDC patient-derived lung adenocarcinoma cell line growth inhibition [AhR]
Conditions: for IC50: curve of first compound; for viability, T/C: stronger effect = lower value; active means viability on the fitted dose curve at most 10% of control; inactive means the rest
Excerpt: Multicellular complex tumor spheroid response to aryl hydrocarbon receptor antagonists in combination with a variety of drugs and investigational agents in selected tumor cell lines
The current study was undertaken to assess response to aryl hydrocarbon receptor antagonists in combination with standard-of-care drugs and investigational agents in solid tumor complex spheroid models. Complex spheroids include a stromal component modeled by human endothelial cells (HUVEC) and fibroblasts modeled by human mesenchymal stem cells (MSCs). The concentration ranges selected for each drug and investigational agent were based upon clinically achievable concentrations if the clinical Cmax of the agent was known.
Compounds. The drugs and investigational agents: BAY 2416964 (NSC825713), GNF351 (NSC835774), CH-223191 (NSC835775), CPI-455 (NSC825282), aza-TdCyd (NSC777586), decitabine (NSC127716), belinostat (NSC758774), entinostat (NSC756642), pevonedistat (NSC761192), tazemetostat (NSC777109), talazoparib (NSC765396), olaparib (NSC753686), selinexor (NSC780203), nedisertib (M3814, NSC802822), bortezomib (NSC756655), venetoclax (NSC766270), doxorubicin (NSC123127), elimusertib (BAY189344, NSC800525), ceralasertib (AZD6738, NSC777638), TAK-243 (NSC785004), alisertib (NSC759677), etoposide (NSC141540), topotecan (NSC609699), eribulin (NSC707389), gemcitabine (NSC613327), carboplatin (NSC241240), cisplatin (NSC119875), and SN-38 (NSC673596) were obtained from the National Cancer Institute (NCI) Developmental Therapeutics Program Chemical Repository (32). The FDA-approved anticancer drug set is available from the Developmental Therapeutics Program at https://dtp.cancer.gov/organization/dscb/obtaining/available plates.htm. […] The stock solutions were prepared in dimethyl sulfoxide (DMSO, Sigma-Aldrich, St. Louis, MO, cat. D2650), except for the platinum compounds which were prepared in saline (Quality Biological, Gaithersburg, MD, cat. 114-055-101), at 800-fold the tested concentration and stored at -70 degrees C prior to their use. All drugs and investigational agents were tested over a range starting from a high concentration at or near the clinical Cmax and decreasing in half-log increments. If the clinical Cmax for an agent had not been determined, the highest concentration tested was 10 microM (Table 1).
Cell Culture. All cells were maintained in an incubator at 37 degrees C and 5% CO2 with 95% humidity. The PDC lines were cultured according to standard operating procedures established by the NCI PDMR (https://pdmr.cancer.gov). Briefly, all PDCs were thawed and cultured in Matrigel-coated flasks prepared with a working solution of 1X Ham's F-12 nutrient mix, without supplementation (Invitrogen, Waltham, MA, cat. 11765054), 100 U/mL penicillin-streptomycin (Invitrogen, cat. 15140122), and 2.5% Matrigel (Corning Inc., Corning, NY, cat. 354248) for the first three passages. All PDCs were cultured in complete DMEM/F-12 media containing advanced DMEM/F-12 (Invitrogen, cat. 12634028), 4.9% defined fetal bovine serum, heat inactivated (HyClone Laboratories Inc., Logan, UT, cat. SH30070.03HI), 389 ng/mL hydrocortisone (Sigma-Aldrich, cat. H4001), 9.7 ng/mL human EGF recombinant protein (Invitrogen, cat. PHG0313), 23.4 microg/mL adenine (Sigma-Aldrich, cat. A2786), 97.3 U/mL penicillin-streptomycin (Invitrogen, cat. 15140122), 1.9 mM L-glutamine (Invitrogen, cat. 25030081), and 9.7 microM Y-27632 dihydrochloride (Tocris Bioscience, Bristol, United Kingdom, cat. 1254). The PDCs were cultured in complete DMEM/F12 media without 10 microM Y-27632 dihydrochloride for at least two passages prior to the screen. The established cell lines NCI-H1341 and […] were cultured in DMEM/F-12, HEPES (Invitrogen, cat. 11330032), 5% defined fetal bovine serum (HyClone Laboratories Inc., cat. SH30070.03), ITS premix universal culture supplement [insulin (5 microg/mL), transferrin (5 microg/mL), and selenious acid (5 ng/mL)] […]
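Further: spheroids exposed to agents for seven days.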

O=C(C=Cn1cnc(-c2cc(C(F)(F)F)cc(C(F)(F)F)c2)n1)NNc1cnccn1 + Cc1ccccc1N=Nc1ccc(NC(=O)c2ccnn2C)c(C)c1
0.864 µM: IC50 (second compound 1 µM)
1.96 µM: IC50 (second compound 3.16 µM)
inactive: viability, T/C (second compound 0.1 µM, first compound 0.00949 µM) 106% | viability, T/C (second compound 0.1 µM, first compound 0.03 µM) 76.8% | viability, T/C (second compound 0.1 µM, first compound 0.0949 µM) 72.7% | viability, T/C (second compound 0.1 µM, first compound 0.3 µM) 49.5% | viability, T/C (second compound 0.1 µM, first compound 0.949 µM) 48.9% | viability, T/C (second compound 0.1 µM, first compound 3 µM) 48% | viability, T/C (second compound 0.316 µM, first compound 0.00949 µM) 91.8% | viability, T/C (second compound 0.316 µM, first compound 0.03 µM) 93.3% | viability, T/C (second compound 0.316 µM, first compound 0.0949 µM) 70.5% | viability, T/C (second compound 0.316 µM, first compound 0.3 µM) 55.8% | viability, T/C (second compound 0.316 µM, first compound 0.949 µM) 45.3% | viability, T/C (second compound 0.316 µM, first compound 3 µM) 47.9% | viability, T/C (second compound 1 µM, first compound 0.00949 µM) 94.4% | viability, T/C (second compound 1 µM, first compound 0.03 µM) 91.1% | viability, T/C (second compound 1 µM, first compound 0.0949 µM) 66% | viability, T/C (second compound 1 µM, first compound 0.3 µM) 56.9% | viability, T/C (second compound 1 µM, first compound 0.949 µM) 49.3% | viability, T/C (second compound 1 µM, first compound 3 µM) 47.4% | viability, T/C (second compound 3.16 µM, first compound 0.00949 µM) 105% | viability, T/C (second compound 3.16 µM, first compound 0.03 µM) 81.1% | viability, T/C (second compound 3.16 µM, first compound 0.0949 µM) 75.9% | viability, T/C (second compound 3.16 µM, first compound 0.3 µM) 58.4% | viability, T/C (second compound 3.16 µM, first compound 0.949 µM) 55.7% | viability, T/C (second compound 3.16 µM, first compound 3 µM) 47% | viability, T/C (second compound 10 µM, first compound 0.00949 µM) 85.7% | viability, T/C (second compound 10 µM, first compound 0.03 µM) 83.8% | viability, T/C (second compound 10 µM, first compound 0.0949 µM) 66.7% | viability, T/C (second compound 10 µM, first compound 0.3 µM) 53.6% | viability, T/C (second compound 10 µM, first compound 0.949 µM) 52% | viability, T/C (second compound 10 µM, first compound 3 µM) 49%
> 3 µM: IC50 (second compound 10 µM)
0.586 µM: IC50 (second compound 0.316 µM)
0.839 µM: IC50 (second compound 0.1 µM)

COc1cccc2c1C(=O)c1c(O)c3c(c(O)c1C2=O)CC(O)(C(=O)CO)CC3OC1CC(N)C(O)C(C)O1 (stereo not given) + Cc1cncc(-c2nc(NCCc3c[nH]c4ccccc34)c3ncn(C(C)C)c3n2)c1
< 0.0316 µM: IC50 (second compound 0.1 µM) | IC50 (second compound 0.316 µM) | IC50 (second compound 1 µM) | IC50 (second compound 10 µM)
0.112 µM: IC50 (second compound 3.16 µM)
active: viability, T/C (second compound 0.1 µM, first compound 3.16 µM) 3.85% | viability, T/C (second compound 0.1 µM, first compound 10 µM) 14% | viability, T/C (second compound 0.316 µM, first compound 3.16 µM) 3.35% | viability, T/C (second compound 0.316 µM, first compound 10 µM) 12.9% | viability, T/C (second compound 1 µM, first compound 1 µM) 6.09% | viability, T/C (second compound 1 µM, first compound 3.16 µM) 3.45% | viability, T/C (second compound 1 µM, first compound 10 µM) 15.4% | viability, T/C (second compound 3.16 µM, first compound 1 µM) 4.87% | viability, T/C (second compound 3.16 µM, first compound 3.16 µM) 4.59% | viability, T/C (second compound 3.16 µM, first compound 10 µM) 12.2% | viability, T/C (second compound 10 µM, first compound 1 µM) 2.46% | viability, T/C (second compound 10 µM, first compound 3.16 µM) 5.69% | viability, T/C (second compound 10 µM, first compound 10 µM) 7.61%
inactive: viability, T/C (second compound 0.1 µM, first compound 0.0316 µM) 50.2% | viability, T/C (second compound 0.1 µM, first compound 0.1 µM) 38.3% | viability, T/C (second compound 0.1 µM, first compound 0.316 µM) 26.9% | viability, T/C (second compound 0.1 µM, first compound 1 µM) 7.22% | viability, T/C (second compound 0.316 µM, first compound 0.0316 µM) 50.4% | viability, T/C (second compound 0.316 µM, first compound 0.1 µM) 37.9% | viability, T/C (second compound 0.316 µM, first compound 0.316 µM) 27.2% | viability, T/C (second compound 0.316 µM, first compound 1 µM) 6.87% | viability, T/C (second compound 1 µM, first compound 0.0316 µM) 51.4% | viability, T/C (second compound 1 µM, first compound 0.1 µM) 44.9% | viability, T/C (second compound 1 µM, first compound 0.316 µM) 27.6% | viability, T/C (second compound 3.16 µM, first compound 0.0316 µM) 56.1% | viability, T/C (second compound 3.16 µM, first compound 0.1 µM) 50% | viability, T/C (second compound 3.16 µM, first compound 0.316 µM) 28.9% | viability, T/C (second compound 10 µM, first compound 0.0316 µM) 40% | viability, T/C (second compound 10 µM, first compound 0.1 µM) 35.5% | viability, T/C (second compound 10 µM, first compound 0.316 µM) 21.5%
